1 compound from article PMC3634089 (The Korean Journal of Physiology & Pharmacology : …, 2013) can be followed below.

The test concerns the target GABAC receptor ρ1 subunit (Homo sapiens, UniProt P24046). As to the kind of experiment: two-electrode voltage clamp in Xenopus oocytes expressing human ρ[…]. In kind it is cell-based. On the technique in general: In two-electrode clamp one electrode senses voltage and the other passes current.

GABAC receptor ρ1 subunit, sequence (P24046 22-479): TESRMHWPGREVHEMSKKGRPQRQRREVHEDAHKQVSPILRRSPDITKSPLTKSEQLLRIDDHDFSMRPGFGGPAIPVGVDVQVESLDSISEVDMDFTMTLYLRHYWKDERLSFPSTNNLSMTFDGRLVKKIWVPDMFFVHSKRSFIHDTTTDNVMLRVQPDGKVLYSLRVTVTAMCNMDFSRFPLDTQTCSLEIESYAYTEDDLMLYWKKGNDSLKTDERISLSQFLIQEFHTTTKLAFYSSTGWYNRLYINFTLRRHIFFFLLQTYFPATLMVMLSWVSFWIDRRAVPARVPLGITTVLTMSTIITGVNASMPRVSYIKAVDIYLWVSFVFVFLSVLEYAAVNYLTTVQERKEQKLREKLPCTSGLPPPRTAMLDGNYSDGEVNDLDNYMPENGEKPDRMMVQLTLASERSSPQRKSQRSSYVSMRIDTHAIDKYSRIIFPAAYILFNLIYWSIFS

For `CC(C)=CCC[C@](C)(O)[C@H]1CC[C@]2(C)[C@@H]1[C@H](O)C[C@@H]1[C@@]3(C)CC[C@H](O)C(C)(C)[C@@H]3[C@@H](O)C[C@]12C` [M4, protopanaxatriol], the half-inhibitory concentration (IC50) (in general, the concentration needed to halve the response being measured) came out at 45.7 ± 3.9 µM.
